The NIST ThermoML archive (doi:10.1016/j.tca.2004.12.008)

Assay: mn = molality of the nth substance listed, in mol/kg
Details: 101.3 kPa, Liquid, Vibrating tube method

NCC(=O)NCC(=O)O [glycylglycine] + O
mass density [kg/m3]
Details	m1 = 0.0949	m1 = 0.2052	m1 = 0.2997	m1 = 0.4062	m1 = 0.5069
298.15 K	1002.54	1008.5	1013.49	1018.99	1024.06
308.15 K	999.21	1005.1	1010.03	1015.47	1020.5
